How the values were obtained:
[1] = target: T1, p110δ/p85α (PI3K p110 delta) (Homo sapiens, UniProt O00329); assay: PI3K isoform inhibition assay (fluorescence polarization PIP3 displacement; alternatively radiometric), p110 delta; format: biochemical; settings: for IC50: PI3K p110 delta binding IC50; for IC50 p110 alpha/IC50 p110 delta: delta/alpha selectivity: ratio of p110 alpha IC50 to p110 delta IC50
T1 construct: purchased Upstate Group, Millipore; Dundee, UK
Description: PI3K Isoform Inhibition Assay (p110 Alpha, Beta, Gamma, Delta: α, β, γ, δ)
PI3K enzymatic activity was assayed by measuring the amount of product phosphatidylinositol 3,4,5-phosphate (PIP3) formed from substrate 4,5 phosphatidylinositol 4,5-phosphate (PIP2) using a fluorescence polarization displacement assay. The decrease in fluorescence polarization of a fluorescent PIP3 probe is measured as it is displaced from a PIP3-binding protein GRP-1 detector by PI3K-catalyzed product. […] The kinase reactions were initiated by the addition of 40 ng/mL p110α/p85α, 300 ng/mL p110β/p85α, 40 ng/mL p110γ, or 40 ng/mL p110δ/p85α (Upstate Group, Millipore; Dundee, UK), and 10 μM PIP2 (Echelon Biosciences) to the wells. […] After 60 minutes of incubation at room temperature to allow equilibration of labeled and unlabeled PIP3 binding, the parallel and perpendicular components of the fluorescence emissions from each sample were measured at an excitation wavelength of 530 nm and an emission wavelength of 590 nm using an Envision fluorescent plate reader with a rhodamine filter (PerkinElmer Life and Analytical Sciences; Wellesley, Mass.). The assay is capable of detecting 0.1-2.0 μM PIP3 product. The IC50 values were obtained by fitting the dose-dependent inhibition data to a 4-parameter equation using Assay Explorer software (MDL, San Ramon, Calif.).
The Formula I compound was serially diluted in 100% DMSO. The kinase reaction was incubated for 1 h at room temperature, and the reaction was terminated by the addition of PBS. IC50 values were subsequently determined using sigmoidal dose-response curve fit (variable slope).
HT baculovirus expression system (GIBCO/BRL), and then purified for use in biochemical assays. The four Class I PI 3-kinases are cloned into baculovirus vectors as follows: […]

[2] = tested on: CD69 positive cells that are also CD20 positive, stimulated by anti-IgM, in human whole blood; assay: CD69 whole blood assay (human whole blood, anti-IgM stimulated); format: cell-based; settings: concentration decreasing by 50% the percent CD69 positive of CD20 positive cells stimulated by anti-IgM, 20 hours, read-out: IC50 in the CD69 Whole Blood Assay
Description: Human blood is obtained from healthy volunteers, with the following restrictions: 1 week drug-free, non-smokers. Blood (approximately 20 mls to test 8 compounds) is collected by venipuncture into Vacutainer tubes with sodium heparin.
Solutions of Formula I compounds at 1000 or 2000 μM in PBS (20×), are diluted by three-fold serial dilutions in 10% DMSO in PBS for a nine point dose-response curve. An aliquot of 5.5 μl of each compound is added in duplicate to a 2 ml 96-well plate; 5.5 μl of 10% DMSO in PBS is added as control and no-stimulus wells. Human whole blood—HWB (100 μl) is added to each well. After mixing the plates are incubated at 37° C., 5% CO2, 100% humidity for 30 minutes. Goat F(ab′)2 anti-human IgM (10 μl of a […] solution, 50 μg/ml final) is added to each well (except the no-stimulus wells) with mixing and the plates are incubated for an additional 20 hours. At the end of the 20 hour incubation, samples are incubated with florescent labeled antibodies for 30 minutes, at 37° C., 5% CO2, 100% humidity. Include induced control, unstained and single stains for compensation adjustments and initial voltage settings. Samples are then lysed with Pharmingen Lyse according to the manufacturer's instructions. Samples are then transferred to a 96 well plate suitable to be run on the AMS 96 well system on the BD Calibur FACs machine. Data acquired and Mean Fluorescence Intensity values were obtained using Cell Quest Software. Results are initially analyzed by FACS analysis software (Flow Jo). […] The IC50 values are calculated by Activityl)ase using Xlfit version 3, equation 201.

T1 sequence (O00329 whole entry, canonical isoform): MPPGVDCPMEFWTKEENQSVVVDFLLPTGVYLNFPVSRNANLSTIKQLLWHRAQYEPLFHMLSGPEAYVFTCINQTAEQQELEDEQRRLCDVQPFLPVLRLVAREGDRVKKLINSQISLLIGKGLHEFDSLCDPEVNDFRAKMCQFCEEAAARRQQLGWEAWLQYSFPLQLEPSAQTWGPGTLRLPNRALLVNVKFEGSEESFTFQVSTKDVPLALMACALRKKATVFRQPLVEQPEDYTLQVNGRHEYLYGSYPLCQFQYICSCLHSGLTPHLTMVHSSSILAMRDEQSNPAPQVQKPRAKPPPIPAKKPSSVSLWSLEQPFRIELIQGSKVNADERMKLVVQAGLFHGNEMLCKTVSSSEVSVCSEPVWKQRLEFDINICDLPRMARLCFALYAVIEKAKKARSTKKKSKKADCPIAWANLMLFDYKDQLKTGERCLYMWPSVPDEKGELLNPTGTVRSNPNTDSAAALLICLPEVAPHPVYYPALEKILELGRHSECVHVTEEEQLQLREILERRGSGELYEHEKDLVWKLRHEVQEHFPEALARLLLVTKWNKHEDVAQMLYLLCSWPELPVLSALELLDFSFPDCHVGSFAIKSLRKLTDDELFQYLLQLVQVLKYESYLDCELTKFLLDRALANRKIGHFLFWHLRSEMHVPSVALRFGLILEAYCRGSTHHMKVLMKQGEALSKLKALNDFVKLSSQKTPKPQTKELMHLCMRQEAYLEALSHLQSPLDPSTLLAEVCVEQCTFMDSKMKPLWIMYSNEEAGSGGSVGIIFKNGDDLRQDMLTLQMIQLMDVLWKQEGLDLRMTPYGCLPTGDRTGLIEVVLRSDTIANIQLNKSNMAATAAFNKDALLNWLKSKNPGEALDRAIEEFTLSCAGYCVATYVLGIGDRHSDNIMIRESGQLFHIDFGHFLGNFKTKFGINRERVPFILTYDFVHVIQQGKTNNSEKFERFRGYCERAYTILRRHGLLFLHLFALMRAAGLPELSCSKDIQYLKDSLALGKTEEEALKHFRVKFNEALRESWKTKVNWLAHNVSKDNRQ
T1 sequence (P27986 whole entry partner, canonical isoform): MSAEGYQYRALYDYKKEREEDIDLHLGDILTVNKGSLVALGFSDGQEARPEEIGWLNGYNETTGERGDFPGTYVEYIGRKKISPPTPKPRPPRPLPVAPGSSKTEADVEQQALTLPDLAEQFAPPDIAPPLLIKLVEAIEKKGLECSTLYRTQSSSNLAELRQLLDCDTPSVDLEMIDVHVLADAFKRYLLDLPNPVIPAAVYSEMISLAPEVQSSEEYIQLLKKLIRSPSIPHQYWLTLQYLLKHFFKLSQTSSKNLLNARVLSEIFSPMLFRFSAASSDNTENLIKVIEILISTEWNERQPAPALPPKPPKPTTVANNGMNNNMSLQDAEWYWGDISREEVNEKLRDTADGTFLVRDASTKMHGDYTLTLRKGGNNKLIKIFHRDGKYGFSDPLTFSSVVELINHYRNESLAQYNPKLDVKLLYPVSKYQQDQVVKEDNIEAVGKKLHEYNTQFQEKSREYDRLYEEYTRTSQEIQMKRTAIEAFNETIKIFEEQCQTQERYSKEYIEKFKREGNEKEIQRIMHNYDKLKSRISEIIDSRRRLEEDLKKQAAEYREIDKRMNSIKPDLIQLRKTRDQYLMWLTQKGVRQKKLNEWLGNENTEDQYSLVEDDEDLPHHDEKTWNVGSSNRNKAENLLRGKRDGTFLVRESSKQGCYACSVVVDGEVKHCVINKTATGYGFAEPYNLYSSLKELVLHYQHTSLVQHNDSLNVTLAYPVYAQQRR

Row | Compound | IC50 [1] [nM] | IC50 p110 alpha/IC50 p110 delta [1] | IC50 [2] [nM]
1 | Cn1c(CN2CCN(C(C)(C)CO)CC2)nc2c(N3CCOCC3)nc(-n3c(CCO)nc4ccccc43)nc21 [Example 427, 2-(4-((2-(2-(2-hydroxyethyl)-1H-benzo[d]imidazol-1-yl)-9-methyl-6-morpholino-9H-purin-8-yl)methyl)piperazin-1-yl)-2-methylpropan-1-ol] | – | – | 56.7
2 | COc1cccc(-c2nc3c(N4CCOCC4)nc(-n4c(C(C)C)nc5ccccc54)nc3n2C)c1 [Example 683, 4-(2-(2-isopropyl-1H-benzo[d]imidazol-1-yl)-8-(3-methoxyphenyl)-9-methyl-9H-purin-6-yl)morpholine] | 31.7 | 23 | –
3 | CC(C)c1nc2ccccc2n1-c1nc(N2CCOCC2)c2nc(-c3cccnc3)n(C)c2n1 [Example 676, 4-(2-(2-isopropyl-1H-benzo[d]imidazol-1-yl)-9-methyl-8-(pyridin-3-yl)-9H-purin-6-yl)morpholine] | 13.6 | 14 | –
4 | Cn1c(CN2CCC(C(C)(C)O)CC2)nc2c(N3CCOCC3)nc(-c3n[nH]c4ccccc34)nc21 [Example 162, 2-(1-((2-(1H-indazol-3-yl)-9-methyl-6-morpholino-9H-purin-8-yl)methyl)piperidin-4-yl)propan-2-ol] | 14.6 | 191 | –
5 | COC(C)(C)C1CCN(Cc2nc3c(N4CCOCC4)nc(-c4c(C)oc5ccccc45)nc3n2C)CC1 [Example 200, 4-(8-((4-(2-methoxypropan-2-yl)piperidin-1-yl)methyl)-9-methyl-2-(2-methylbenzofuran-3-yl)-9H-purin-6-yl)morpholine] | 22.2 | 54 | –
6 | CCc1nc2ccccc2n1-c1nc(N2CCOCC2)c2nc(CN3CCN(C(C)(C)CO)CC3)[nH]c2n1 [Example 489, 2-(4-((2-(2-ethyl-1H-benzo[d]imidazol-1-yl)-6-morpholino-9H-purin-8-yl)methyl)piperazin-1-yl)-2-methylpropan-1-ol] | 1.37 | 157 | –
7 | CCc1nc2ccccc2n1-c1nc(N2CCOCC2)c2nc(CN3CCC(C(C)(C)O)CC3)[nH]c2n1 [Example 701, 2-(1-((2-(2-ethyl-1H-benzo[d]imidazol-1-yl)-6-morpholino-9H-purin-8-yl)methyl)piperidin-4-yl)propan-2-ol] | – | 50 | –
8 | Cn1c(CN2CC(C3CCOCC3)C2)nc2c(N3CCOCC3)nc(-n3c(C4CC4)nc4ccccc43)nc21 [Example 499, 4-(2-(2-cyclopropyl-1H-benzo[d]imidazol-1-yl)-9-methyl-8-((3-(tetrahydro-2H-pyran-4-yl)azetidin-1-yl)methyl)-9H-purin-6-yl)morpholine] | 6.3 | 75 | –

The next lines start with the values.

Row | IC50 [1] [nM] | IC50 p110 alpha/IC50 p110 delta [1] | IC50 [2] [nM] | Compound
9 | 1.45 | 150 | – | CCc1nc2ccccc2n1-c1nc(N2CCOCC2)c2nc(CN3C[C@@H]4C[C@H]3CN4C(C)(C)CO)n(C)c2n1 [Example 521, 2-((1S,4S)-5-((2-(2-ethyl-1H-benzo[d]imidazol-1-yl)-9-methyl-6-morpholino-9H-purin-8-yl)methyl)-2,5-diazabicyclo[2.2.1]heptan-2-yl)-2-methylpropan-1-ol]
10 | 7.2 | 34 | – | Cn1c(CN2CCC(C(C)(C)O)CC2)nc2c(N3CCOCC3)nc(-c3cnc(N)c4ccccc34)nc21 [Example 115, 2-(1-((2-(1-aminoisoquinolin-4-yl)-9-methyl-6-morpholino-9H-purin-8-yl)methyl)piperidin-4-yl)propan-2-ol]
11 | – | – | 51.1 | CCc1nc2ccccc2n1-c1nc(N2CCOCC2)c2nc(CN3CC([C@@H](O)C(C)C)C3)n(C)c2n1 [Example 388, (S)-1-(1-((2-(2-ethyl-1H-benzo[d]imidazol-1-yl)-9-methyl-6-morpholino-9H-purin-8-yl)methyl)azetidin-3-yl)-2-methylpropan-1-ol]
12 | 101 | 53 | – | c1cc(-c2nc(N3CCOCC3)c3sc(CN4CCC(N5CCOCC5)CC4)cc3n2)c2ccncc2c1 [Example 101, 4-(1-((2-(isoquinolin-5-yl)-4-morpholinothieno[3,2-d]pyrimidin-6-yl)methyl)piperidin-4-yl)morpholine]
13 | 1.3 | 32 | – | CC(C)(C(N)=O)N1CCN(Cc2nc3c(N4CCOCC4)nc(-c4cncc5[nH]ccc45)nc3s2)CC1 [Example 131, 2-methyl-2-(4-((7-morpholino-5-(1H-pyrrolo[2,3-c]pyridin-4-yl)thiazolo[5,4-d]pyrimidin-2-yl)methyl)piperazin-1-yl)propanamide]
14 | 0.589 | 140 | – | CCc1nc2ccccc2n1-c1nc(N2CCOCC2)c2nc(CC3CN(C4CCS(=O)(=O)CC4)C3)n(C)c2n1 [Example 501, 4-(2-(2-ethyl-1H-benzo[d]imidazol-1-yl)-9-methyl-8-((1-(tetrahydro-2H-(1,1-dioxo)-thiopyran-4-yl)azetidin-3-yl)methyl)-9H-purin-6-yl)morpholine]
15 | – | – | 65.9 | Cn1c(CN2CCN(C(C)(C)C(N)=O)CC2)nc2c(N3CCOCC3)nc(-n3c(C4CC4)nc4ccccc43)nc21 [Example 438, 2-(4-((2-(2-cyclopropyl-1H-benzo[d]imidazol-1-yl)-9-methyl-6-morpholino-9H-purin-8-yl)methyl)piperazin-1-yl)-2-methylpropanamide]
16 | 9.4 | 14 | – | CCc1nc2ccccc2n1-c1nc(N2CCOCC2)c2nc(CC(=O)N3CCC(C(C)(C)O)CC3)sc2n1 [Example 549, 2-(5-(2-ethyl-1H-benzo[d]imidazol-1-yl)-7-morpholinothiazolo[5,4-d]pyrimidin-2-yl)-1-(4-(2-hydroxypropan-2-yl)piperidin-1-yl)ethanone]
17 | 9.9 | 49 | – | CCc1nc2ccccc2n1-c1nc(N2CCOCC2)c2nc(CCN3CCOCC3(C)C)n(C)c2n1 [Example 535, 4-(2-(2-(2-ethyl-1H-benzo[d]imidazol-1-yl)-9-methyl-6-morpholino-9H-purin-8-yl)ethyl)-3,3-dimethylmorpholine]
18 | 42.9 | 35 | – | CC(C)(C(N)=O)N1CCN(Cc2nc3nc(-c4cccc5nccn45)nc(N4CCOCC4)c3s2)CC1 [Example 248, 2-(4-((5-(imidazo[1,2-a]pyridin-5-yl)-7-morpholinothiazolo[4,5-d]pyrimidin-2-yl)methyl)piperazin-1-yl)-2-methylpropanamide]
19 | 1.8 | 29 | – | Cc1c(CN2CCN(C(C)(C)C(N)=O)CC2)sc2c(N3CCOCC3)nc(-c3cncc4[nH]ccc34)nc12 [Example 112, 2-methyl-2-(4-((7-methyl-4-morpholino-2-(1H-pyrrolo[2,3-c]pyridin-4-yl)thieno[3,2-d]pyrimidin-6-yl)methyl)piperazin-1-yl)propanamide]
20 | 9.7 | >300 | – | Cc1oc2ccccc2c1-c1nc(N2CCOCC2)c2nc(CN3CCN(C(C)(C)C(N)=O)CC3)sc2n1 [Example 211, 2-methyl-2-(4-((5-(2-methylbenzofuran-3-yl)-7-morpholinothiazolo[5,4-d]pyrimidin-2-yl)methyl)piperazin-1-yl)propanamide]
21 | 6.9 | 30 | – | CN(C)C1CCN(Cc2cc3nc(-n4ccc5cnccc54)nc(N4CCOCC4)c3s2)CC1 [Example 149, N,N-dimethyl-1-((4-morpholino-2-(1H-pyrrolo[3,2-c]pyridin-1-yl)thieno[3,2-d]pyrimidin-6-yl)methyl)piperidin-4-amine]
